Source: patent US20190134234A1, “COMPOSITION FOR STABILIZING RADIOCHEMICAL PURITY OF [18F] FLUORO-DOPA AND METHOD FOR PREPARING SAME” (CI-CO HEALTHCARE CO., LTD., priority 2015, published 2019)

Experiments:
[1] = Radiochemical purity of [18F]FDG by TLC after pH adjustment, standing at room temperature; format: physicochemical; conditions: for radiochemical purity: room temperature
Procedure: [^18F]FDG (radiochemical purity 100%) was prepared according to known procedure (Ind. J. Appl. Radiatl Isot 35 1984 985-986) was formulated with physiological saline and hydrogen ion concentration was adjusted to 6, 7, and 8, respectively, using sodium bicarbonate, and then was allowed to stand at room temperature for 0, 2, 4, and 6 hours.

[2] = Radiochemical purity by HPLC after neutralization with sodium bicarbonate, standing at room temperature; format: physicochemical; conditions: for radiochemical purity: room temperature; for impurities generated (HPLC chromatogram): pH 7, room temperature, no ethanol
Procedure: [^18F]fluoro-dopa (radiochemical purity 100%) was prepared according to known procedures (see Appl. Radiat. Isot. 672009 1650-1653), the initial hydrogen ion concentration of the prepared [^18F]fluoro-dopa (radiochemical purity 100%) is 4. This was formulated into physiological saline, and hydrogen ion concentration was adjusted to 6, 7, and 8, respectively, using sodium bicarbonate. Each time the solution was allowed to stand at room temperature (or at room temperature) for 0, 2, 4 and 6 hours, high-performance liquid chromatograph (HPLC) was used to measure the radiochemical purity. […]
[^18F]fluoro-dopa (radiochemical purity 100%) was prepared according to known procedures (see: Appl. Radiat. Isot. 67 2009 1650-1653), and the hydrogen ion concentration was adjusted to 7 (pH 7) using sodium bicarbonate after preparation with physiological saline. The determination of whether the radiochemical purity was generated was confirmed by measurement using HPLC (high-performance liquid chromatography) after 2 and 6 hours at room temperature. The results are illustrated in FIGS. 1 and 2. […]

[3] = IASOdopa SPC; cited from earlier work

SMILES | radiochemical purity ([2]; pH 6, 0 hour, HPLC) [%] | radiochemical purity ([2]; pH 6, 2 hours, HPLC) [%] | radiochemical purity ([2]; pH 6, 4 hours, HPLC) [%] | radiochemical purity ([2]; pH 6, 6 hours, HPLC) [%] | radiochemical purity ([2]; pH 7, 0 hour, HPLC) [%] | radiochemical purity ([2]; pH 7, 2 hours, HPLC) [%] | radiochemical purity ([2]; pH 7, 4 hours, HPLC) [%] | radiochemical purity ([2]; pH 7, 6 hours, HPLC) [%] | radiochemical purity ([2]; pH 8, 0 hour, HPLC) [%] | radiochemical purity ([2]; pH 8, 2 hours, HPLC) [%] | radiochemical purity ([2]; pH 8, 4 hours, HPLC) [%] | radiochemical purity ([2]; pH 8, 6 hours, HPLC) [%] | other results
OC[C@H]1OC(O)[C@H]([18F])[C@@H](O)[C@@H]1O (some centres unmarked) [[^18F]FDG] |  |  |  |  |  |  |  |  |  |  |  |  | radiochemical purity ([1]; pH 6, 0 hour): 99.07%; radiochemical purity ([1]; pH 6, 2 hours): 98.04%; radiochemical purity ([1]; pH 6, 4 hours): 98.12%; radiochemical purity ([1]; pH 6, 6 hours): 99.12%; radiochemical purity over time at a neutral pH ([1]; pH 6 to 8, physiological saline, up to 6 hours): ≥ 90%; radiochemical purity ([1]; pH 7, 0 hour): 99.23%; radiochemical purity ([1]; pH 7, 2 hours): 100%; radiochemical purity ([1]; pH 7, 4 hours): 99.46%; radiochemical purity ([1]; pH 7, 6 hours): 98.12%; radiochemical purity ([1]; pH 8, 0 hour): 99.78%; radiochemical purity ([1]; pH 8, 2 hours): 99.01%; radiochemical purity ([1]; pH 8, 4 hours): 99.89%; radiochemical purity ([1]; pH 8, 6 hours): 100%
Cc1cn([C@H]2C[C@H]([18F])[C@@H](CO)O2)c(=O)[nH]c1=O [[^18F]FLT] | 100 | 100 | 99.78 | 100 | 100 | 100 | 100 | 100 | 99.15 | 100 | 99.29 | 100 | radiochemical purity over time at a neutral pH ([2]; pH 6 to 8, physiological saline, up to 6 hours, HPLC): ≥ 90%
N[C@@H](Cc1cc(O)c(O)cc1[18F])C(=O)O [[^18F]fluoro-dopa, L-6-[^18F]FLUORO-3,4-DIHYDROXYPHENYLALANINE] | 100 | 96.66 | 92.6 | 87.95 | 100 | 92.02 | 78.67 | 63.81 | 99.73 | 91.14 | 76.58 | 51.78 | impurities generated (HPLC chromatogram) ([2]; 2 hours after neutralization): the first impurity (IMP 1) was generated; impurities generated (HPLC chromatogram) ([2]; 6 hours after neutralization): the first impurity (IMP 1) and the second purity (IMP 2) were generated; pH at which it is oxidized [3]: ≥ 4.5
